Reference: patent US7786141B2 (Vertex Pharmaceuticals Incorporated, priority 2004, dated 2010)
Read-outs that look alike come from different tables or passages of the source.

Tests used:
M1 muscarinic receptor = molecular target: T1, M1 muscarinic receptor (Homo sapiens, UniProt P11229); experiment: Functional mobilization of intracellular calcium (FLIPR) in M1-CHO cells; format: cell-based
T1 construct: expressed in transfected cells; host or cells: CHO (M1-CHO)
T1 sequence (P11229 1-460): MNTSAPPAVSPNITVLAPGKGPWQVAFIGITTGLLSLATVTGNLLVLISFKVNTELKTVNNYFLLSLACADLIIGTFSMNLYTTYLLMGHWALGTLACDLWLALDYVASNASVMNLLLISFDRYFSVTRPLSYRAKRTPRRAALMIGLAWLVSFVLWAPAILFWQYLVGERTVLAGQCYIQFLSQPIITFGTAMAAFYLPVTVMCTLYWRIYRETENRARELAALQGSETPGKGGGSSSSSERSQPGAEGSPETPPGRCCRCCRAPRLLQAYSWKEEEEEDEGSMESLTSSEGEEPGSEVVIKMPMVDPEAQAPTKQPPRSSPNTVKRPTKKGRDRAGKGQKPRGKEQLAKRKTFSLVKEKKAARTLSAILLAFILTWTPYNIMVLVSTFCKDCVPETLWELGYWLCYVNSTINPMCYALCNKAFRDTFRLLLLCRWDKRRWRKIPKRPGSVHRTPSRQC
In short: (§1)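 FLIPR Ca2+ read, ex 488/em 540 nm, 60 s. Recombinant CHO lines (M1 or M4), dye-loaded Fluo-3 AM 60-90 min at 37° C, probenecid 1 mM, pH 7.4. Agonist: compound alone; inhibition: 15 min compound pre-incubation, then carbachol at EC80 for that subtype.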

M4 muscarinic receptor = molecular target: T2, M4 muscarinic receptor (Homo sapiens, UniProt P08173); experiment: Functional mobilization of intracellular calcium (FLIPR) in M4-CHO cells; format: cell-based
T2 construct: expressed in transfected cells; host or cells: CHO (M4-CHO)
T2 sequence (P08173 1-479): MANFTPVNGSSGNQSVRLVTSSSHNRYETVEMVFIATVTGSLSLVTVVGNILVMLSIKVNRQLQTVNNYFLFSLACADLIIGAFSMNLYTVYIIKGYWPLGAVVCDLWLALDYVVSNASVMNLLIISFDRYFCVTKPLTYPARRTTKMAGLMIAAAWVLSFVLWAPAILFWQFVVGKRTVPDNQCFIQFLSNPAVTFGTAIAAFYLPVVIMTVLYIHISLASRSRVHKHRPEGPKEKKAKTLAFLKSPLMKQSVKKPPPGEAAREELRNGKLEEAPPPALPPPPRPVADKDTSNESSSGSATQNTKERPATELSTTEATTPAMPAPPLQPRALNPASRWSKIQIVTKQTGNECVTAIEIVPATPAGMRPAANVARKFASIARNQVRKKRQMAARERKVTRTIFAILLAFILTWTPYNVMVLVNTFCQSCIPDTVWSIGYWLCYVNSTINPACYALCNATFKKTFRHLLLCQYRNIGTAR
In short: as §1

[1] = Table 4, 100% efficacy is the maximum response obtained with the Carbachol control
[2] = Table 4, modulating M1 receptor
[3] = Table 4, modulating M4 receptor
[4] = M1 receptor, calcium mobilization
[5] = M1 receptor, calcium mobilization, read-out: M1 Efficacy
[6] = M4 receptor, calcium mobilization
[7] = M4 receptor, calcium mobilization, read-out: M4 Efficacy
[8] = 100% efficacy is the maximum response obtained with the Carbachol control, Table 5
[9] = Table 4, M1 receptor, calcium mobilization (FLIPR)
[10] = Table 4, M4 receptor, calcium mobilization (FLIPR)

SMILES	Emax (M1 muscarinic receptor; [1])	M1 Activity (M1 muscarinic receptor; [2])	Emax (M4 muscarinic receptor; [1])	M4 Activity (M4 muscarinic receptor; [3])	M1 Activity (M1 muscarinic receptor; [4])	Emax (M1 muscarinic receptor; [5])	M4 Activity (M4 muscarinic receptor; [6])	Emax (M4 muscarinic receptor; [7])	M1 Activity (M1 muscarinic receptor; [9])	M4 Activity (M4 muscarinic receptor; [10])	also measured
CCOC(=O)N1C2CCC1CC(N1CCC3(CC1)CN(C(C)=O)c1ccc(OC)cc13)C2 (centres unmarked) [compound 754]	25 to 100%	xxx (activity was measured to be less than 2.0 μM)	25 to 100%	xxx (activity was measured to be less than 2.0 μM)	–	–	–	–	–	–	–
Fc1ccc2c(c1)C1(CCN(C3CCCCC3)CC1)CN2 [compound 325]	–	–	–	–	x (activity was measured to be greater than 1.0 μM)	65 to 85%	x (activity was measured to be greater than 1.0 μM)	< 65%	–	–	–
CC(=O)N[C@H]1CC2(CCN(CC3CC4CCC3CC4)CC2)c2ccccc21 (some centres unmarked) [compound 29]	–	–	–	–	xxx (activity was measured to be less than 0.1 μM)	> 85%	xxx (activity was measured to be less than 0.1 μM)	> 85%	–	–	–
CC(=O)N1CC2(CCN(CC3CCN(C(=O)OC4CCC4)CC3)CC2)c2cc(F)ccc21 [compound 532]	< 25%	x (activity was measured to be greater than 5.0 μM)	< 25%	x (activity was measured to be greater than 5.0 μM)	–	–	–	–	–	–	–
COc1ccc(F)cc1N1CCC(N2CCC3(CC2)CN(C(=O)N(C)C)c2ccc(F)cc23)CC1 [compound 1030]	–	–	–	–	–	–	–	–	–	–	Emax (M1 muscarinic receptor; [8]): 25 to 100%; EC50 (M1 muscarinic receptor; CHO cells expressing M1, calcium mobilization, Table 5): 2000 to 10000 nM; Emax (M4 muscarinic receptor; [8]): 25 to 100%; EC50 (M4 muscarinic receptor; CHO cells expressing M4, calcium mobilization, Table 5): 2000 to 10000 nM
CCOC(=O)N1CCC(N2CCC3(CC2)CN(C(C)=O)c2ccc(C(F)(F)F)cc23)CC1 [compound 603]	25 to 100%	xxx (activity was measured to be less than 2.0 μM)	25 to 100%	xxx (activity was measured to be less than 2.0 μM)	–	–	–	–	–	–	–
CC(=O)N[C@H]1CCC2(CCN(C3CCCCCC3)CC2)c2ccccc21 [compound 881]	25 to 100%	–	25 to 100%	–	–	–	–	–	xxx (activity was measured to be less than 2.0 μM)	xxx (activity was measured to be less than 2.0 μM)	–
CCOC(=O)N1CCC(N2CCC3(CC2)CN(C(C)=O)c2c(C)cc(C)cc23)CC1 [compound 610]	25 to 100%	xxx (activity was measured to be less than 2.0 μM)	25 to 100%	xxx (activity was measured to be less than 2.0 μM)	–	–	–	–	–	–	–
Cc1ccc2c(c1)C1(CCN(CC3CCC4CCC3C4)CC1)CN2 (centres unmarked) [compound 241]	–	–	–	–	xx (activity was measured to be between 0.1 μM and 1.0 μM)	< 65%	x (activity was measured to be greater than 1.0 μM)	> 85%	–	–	–
COCCOC(=O)N1CCCC(N2CCC3(CC2)CN(C(=O)N(C)C)c2ccc(F)cc23)CC1 (centres unmarked) [compound 954]	25 to 100%	–	25 to 100%	–	–	–	–	–	xxx (activity was measured to be less than 2.0 μM)	xxx (activity was measured to be less than 2.0 μM)	–
COCCOC(=O)N1CCC(N2CCC3(CC2)CN(C(C)=O)c2ccc(F)cc23)C1 (centres unmarked) [compound 1012]	< 25%	–	< 25%	–	–	–	–	–	x (activity was measured to be greater than 5.0 μM)	x (activity was measured to be greater than 5.0 μM)	–
CC(=O)N1CC2(CCN(C3CCN(C(=O)O[C@@H]4CCOC4)CC3)CC2)c2cc(C)ccc21 [compound 279]	–	–	–	–	xx (activity was measured to be between 0.1 μM and 1.0 μM)	< 65%	xx (activity was measured to be between 0.1 μM and 1.0 μM)	< 65%	–	–	–
CCOC(=O)N1CCC(N2CCC3(CC2)CN(C(C)=O)c2ccc(-c4ccc(C(N)=O)cc4)cc23)CC1 [compound 406]	–	–	–	–	–	–	–	–	–	–	EC50 (M1 muscarinic receptor; M1-CHO cells, calcium mobilization (FLIPR)): 100 to 1000 nM; Emax (M1 muscarinic receptor; M1-CHO cells, calcium mobilization (FLIPR), read-out: M1 Efficacy): < 65%; EC50 (M4 muscarinic receptor; M4-CHO cells, calcium mobilization (FLIPR)): > 1000 nM; Emax (M4 muscarinic receptor; M4-CHO cells, calcium mobilization (FLIPR), read-out: M4 Efficacy): < 65%
CC(C)C(=O)N[C@H]1CC2(CCN(C[C@H]3C[C@H]4CC[C@H]3C4)CC2)c2ccccc21 [compound 55]	–	–	–	–	xxx (activity was measured to be less than 0.1 μM)	> 85%	xxx (activity was measured to be less than 0.1 μM)	65 to 85%	–	–	–
CCOC(=O)N1CCC(N2CCC3(CC2)CN(C(C)=O)c2ccccc23)CC1 [compound 626]	25 to 100%	xxx (activity was measured to be less than 2.0 μM)	25 to 100%	xxx (activity was measured to be less than 2.0 μM)	–	–	–	–	–	–	–
CCCOC(=O)N1CCC(N2CCC3(CC2)CN(C(C)=O)c2ccccc23)CC1 [compound 910]	25 to 100%	–	< 25%	–	–	–	–	–	xxx (activity was measured to be less than 2.0 μM)	xx (activity was measured to be between 2.0 μM and 5.0 μM)	–
CCCN1CC2(CCN(C[C@@H]3C[C@H]4C=C[C@H]3C4)CC2)c2cc(F)ccc21 [compound 670]	25 to 100%	x (activity was measured to be greater than 5.0 μM)	25 to 100%	xx (activity was measured to be between 2.0 μM and 5.0 μM)	–	–	–	–	–	–	–
c1ccc2c(c1)NCC21CCN(C2CC3CCC2C3)CC1 (centres unmarked) [compound 272]	–	–	–	–	xxx (activity was measured to be less than 0.1 μM)	65 to 85%	xxx (activity was measured to be less than 0.1 μM)	> 85%	–	–	–
O=C1CCCN1[C@H]1CCC2(CCN(C[C@@H]3C[C@H]4C=CC3C4)CC2)c2ccccc21 [compound 856]	25 to 100%	–	25 to 100%	–	–	–	–	–	xxx (activity was measured to be less than 2.0 μM)	xxx (activity was measured to be less than 2.0 μM)	–
CCCOC(=O)N1C2CCC1CC(N1CCC3(CC1)CN(S(C)(=O)=O)c1ccc(F)cc13)C2 (centres unmarked) [compound 294]	–	–	–	–	xx (activity was measured to be between 0.1 μM and 1.0 μM)	> 85%	xx (activity was measured to be between 0.1 μM and 1.0 μM)	65 to 85%	–	–	–
O=C1CC2(CCN(C3CCCCCC3)CC2)c2cc(Cl)ccc21 [compound 983]	25 to 100%	–	25 to 100%	–	–	–	–	–	xxx (activity was measured to be less than 2.0 μM)	xxx (activity was measured to be less than 2.0 μM)	–
CN(C)C(=O)N1CC2(CCN(C3CCN(C(=O)OCC(F)(F)F)CC3)CC2)c2cc(F)ccc21 [compound 938]	25 to 100%	–	25 to 100%	–	–	–	–	–	xxx (activity was measured to be less than 2.0 μM)	xxx (activity was measured to be less than 2.0 μM)	–
O=C(N[C@H]1CC2(CCN([C@@H]3CC4CC[C@@H]3C4)CC2)c2ccccc21)C1CC1 [compound 650]	25 to 100%	xxx (activity was measured to be less than 2.0 μM)	25 to 100%	xxx (activity was measured to be less than 2.0 μM)	–	–	–	–	–	–	–
